Legend:
[1] = target: T1, catalase from ox liver (as active endogenous catalase) (Bos taurus, UniProt P00432); test: Catalase inactivation test: oxygen evolution from hydrogen peroxide measured as pressure in a closed tube, active endogenous catalase; assay type: biochemical; details: 35 units of catalase from ox liver in 1 ml sample, 7 ml solution of the title compound, 0.23 g hydrogen peroxide 30%, 15 minutes at room temperature
T1 construct: catalase from ox liver (as active endogenous catalase); from tissue; host or cells: ox liver
T1 sequence (P00432 2-527 limits assumed): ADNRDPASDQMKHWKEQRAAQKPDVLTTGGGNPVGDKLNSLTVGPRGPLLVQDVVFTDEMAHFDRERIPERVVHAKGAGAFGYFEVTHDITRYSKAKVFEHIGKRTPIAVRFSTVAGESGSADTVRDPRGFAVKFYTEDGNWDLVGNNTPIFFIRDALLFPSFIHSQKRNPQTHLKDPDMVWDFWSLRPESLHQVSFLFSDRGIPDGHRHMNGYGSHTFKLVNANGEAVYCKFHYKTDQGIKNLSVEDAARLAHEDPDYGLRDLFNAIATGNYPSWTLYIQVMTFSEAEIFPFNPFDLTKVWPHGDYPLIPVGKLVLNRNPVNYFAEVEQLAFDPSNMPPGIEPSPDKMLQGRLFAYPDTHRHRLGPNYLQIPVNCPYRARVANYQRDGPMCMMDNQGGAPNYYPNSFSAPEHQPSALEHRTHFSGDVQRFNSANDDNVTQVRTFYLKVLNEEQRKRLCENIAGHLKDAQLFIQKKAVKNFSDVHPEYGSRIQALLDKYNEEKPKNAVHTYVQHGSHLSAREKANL
From the text: (§1) The following reagents are provided: • catalase from ox liver (as active endogenous catalase) • catalase from Aspergillus niger (as active intracellular catalase) • catalase from microorganisms^(*) (as active intracellular catalase) • antifoam (RD® from Dow Corning) • hydrogen peroxide (Perhydrol® 30% from Merck) ^(*)various bacteria and/or fungi
(§2) Each sample contains in each case 35 units of catalase from ox liver or from Aspergillus niger or from microorganisms per ml of distilled water. The 1 ml sample is put in a 15 ml tube (Vacutainer® 16×125 mm from Becton Dickinson), and in each case 7 ml of the aforementioned solution of the title compound are added and mixed therewith (Vortex® Genie 2 mixer from Merck). Then 1 drop of said antifoam is added and mixing is repeated. Thereafter 0.23 g of said hydrogen peroxide is added, and the tube is immediately made gas-tight with a stopper made of chemical-resistant elastic plastic (Viton® from Du Pont de Nemours), briefly (for a few seconds) ventilated with the aid of a hollow needle (Ø1 mm hypodermic needle) piercing the stopper and, immediately thereafter, closed gas-tight again by withdrawing the hollow needle from the stopper. The tube which has been closed gas-tight is left to stand at room temperature for 15 minutes. […] The pressure in the tube is then measured (cf. the description hereinafter of the preferred pressure gage). […]

[2] = tested on: catalase from Aspergillus niger / catalase from microorganisms (as active intracellular catalase); test: Catalase inactivation test: oxygen evolution from hydrogen peroxide measured as pressure in a closed tube, active intracellular catalase; assay type: biochemical, Aspergillus niger; various bacteria and/or fungi; details: 35 units of catalase from Aspergillus niger or from microorganisms in 1 ml sample, 7 ml solution of the title compound, 0.23 g hydrogen peroxide 30%, 15 minutes at room temperature
From the text: as §1, §2

CH2═CH—COO—SO2—O—C12H25
catalase activity by oxygen evolution (pressure in the tube) [1]: the pressure in the tube does not increase | catalase activity by oxygen evolution (pressure in the tube) [2]: the pressure in the tube increases
